Like-named read-outs stand apart in the source and are kept apart here.
Assays:
[1] = test system: Key Broadleaf Weed and Crop Species; test: Post-emergent Test II herbicidal activity (Table 5); type: in vivo; details: post-emergence, 336 h, 14 days after application; for pest or weed control at 70 g/ha: application rate 70 g ai/ha; for pest or weed control at 140 g/ha: application rate 140 g ai/ha
Procedure, shortened: (§1)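 Visual injury ratings (0 = no injury, 100 = complete kill) were taken 14 d after treatment, relative to untreated plants. Seedlings at the first–second true leaf stage received overhead spray at 187 L/ha; the highest rate was serially diluted to ½×, ¼×, ⅛× and 1/16×.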

[2] = test system: Key Grass and Sedge Weeds as well as Grass Crops; test: Post-emergent Test II herbicidal activity (Table 6); type: in vivo; details: post-emergence, 336 h; for pest or weed control at 70 g/ha: 70 g ai/ha; for pest or weed control at 140 g/ha: 140 g ai/ha
Procedure, shortened: as §1

[3] = ABUTH: velvetleaf (Abutilon theophrasti), read-out: Visual Growth Reduction (%) 14 Days After Application, ABUTH
[4] = AMARE: redroot pigweed (Amaranthus retroflexus), read-out: Visual Growth Reduction (%) 14 Days After Application, AMARE
[5] = BRSNN: oilseed-rape, canola (Brassica napus), read-out: Visual Growth Reduction (%) 14 Days After Application, BRSNN
[6] = CHEAL: lambsquarters (Chenopodium album), read-out: Visual Growth Reduction (%) 14 Days After Application, CHEAL
[7] = EPHHL: wild poinsettia (Euphorbia heterophylla), read-out: Visual Growth Reduction (%) 14 Days After Application, EPHHL
[8] = HELAN: sunflower (Helianthus annuus), read-out: Visual Growth Reduction (%) 14 Days After Application, HELAN
[9] = VIOTR: wild pansy (Viola tricolor), read-out: Visual Growth Reduction (%) 14 Days After Application, VIOTR
[10] = CYPES: yellow nutsedge (Cyperus esculentus), read-out: Visual Growth Reduction (%) 14 Days After Application, CYPES
[11] = DIGSA: crabgrass (Digitaria sanguinalis), read-out: Visual Growth Reduction (%) 14 Days After Application, DIGSA
[12] = ECHCG: barnyardgrass (Echinochloa crus-galli), read-out: Visual Growth Reduction (%) 14 Days After Application, ECHCG
[13] = ORYSA: rice (Oryza sativa), crop, read-out: Visual Growth Reduction (%) 14 Days After Application, ORYSA
[14] = SETFA: giant foxtail (Setaria faberi), read-out: Visual Growth Reduction (%) 14 Days After Application, SETFA
[15] = SORVU: grain sorghum (Sorghum vulgare), read-out: Visual Growth Reduction (%) 14 Days After Application, SORVU
[16] = TRZSS (wheat, Triticum aestivum), crop, read-out: Visual Growth Reduction (%) 14 Days After Application, TRZSS
[17] = ZEAMX: maize, corn (Zea mays), crop, read-out: Visual Growth Reduction (%) 14 Days After Application, ZEAMX

Molecule `COC(=O)c1nc(-c2ccc(Br)c(F)c2F)c(F)c(N)c1Cl` [Compound 109, methyl 4-amino-6-(4-bromo-2,3-difluorophenyl)-3-chloro-5-fluoropicolinate] has a pest or weed control at 70 g/ha [1, 3] of 95 to 100%, a pest or weed control at 140 g/ha [1, 3] of 95 to 100% and a pest or weed control at 70 g/ha [1, 4] of 95 to 100%. It also gave a pest or weed control at 140 g/ha [1, 4] of 95 to 100%, a pest or weed control at 70 g/ha [1, 5] of 95 to 100% and a pest or weed control at 140 g/ha [1, 5] of 95 to 100%. It also gave a pest or weed control at 70 g/ha [1, 6] of 95 to 100%, a pest or weed control at 140 g/ha [1, 6] of 95 to 100% and a pest or weed control at 70 g/ha [1, 7] of 95 to 100%. It also gave a pest or weed control at 140 g/ha [1, 7] of 95 to 100%, a pest or weed control at 70 g/ha [1, 8] of 0 to 29% and a pest or weed control at 140 g/ha [1, 8] of 95 to 100%. The pest or weed control at 70 g/ha [1, 9] was 95 to 100%, the pest or weed control at 140 g/ha [1, 9] was 95 to 100% and the pest or weed control at 70 g/ha [2, 10] was 95 to 100%. For the same molecule, the pest or weed control at 140 g/ha [2, 10] was 95 to 100%, the pest or weed control at 70 g/ha [2, 11] was 85 to 94% and the pest or weed control at 140 g/ha [2, 11] was 95 to 100%. It also gave a pest or weed control at 70 g/ha [2, 12] of 95 to 100%, a pest or weed control at 140 g/ha [2, 12] of 95 to 100% and a pest or weed control at 70 g/ha [2, 13] of 45 to 59%. For the same molecule, the pest or weed control at 140 g/ha [2, 13] was 45 to 59%, the pest or weed control at 70 g/ha [2, 14] was 95 to 100% and the pest or weed control at 140 g/ha [2, 14] was 95 to 100%. The pest or weed control at 70 g/ha [2, 15] was 85 to 94%, the pest or weed control at 140 g/ha [2, 15] was 95 to 100% and the pest or weed control at 70 g/ha [2, 16] was 45 to 59%. The pest or weed control at 140 g/ha [2, 16] was 60 to 74%, the pest or weed control at 70 g/ha [2, 17] was 85 to 94% and the pest or weed control at 140 g/ha [2, 17] was 85 to 94%.
